Test results taken from patent US4352792A, “3-Alkoxyflavone antiviral agents” (priority 1979, dated 1982).
Values after ≈ are worked out from the molar mass of the structure shown. Where two headings read alike, the source gives them in different places.

Tests used:
rhinovirus HGP = assay: Inhibition of viral cytopathogenic effect in HeLa cells (rhinovirus HGP); assay type: cell-based; conditions: Enterovirus, 48 h; 50% inhibition of viral c.p.e., HeLa cells, 2 days at 33° C.; read-out: IC50 rhinovirus HGP
Coxsackie virus B1 [1] = assay: Inhibition of viral cytopathogenic effect in HeLa cells (Coxsackie virus B1); assay type: cell-based; conditions: 24 h, read-out: IC50 Coxsackie virus B1
Coxsackie virus B1 [2] = assay: Anti-Coxsackie virus activity, lethal infection in mice
influenzavirus A2/Adachi = assay: Anti-influenzavirus activity in mice; conditions: up to 21 days; for Survivals: survivors/total
Coxsackie virus B1 [3] = tested on: Coxsackie virus B1
acute toxicity in mice = conditions: mouse, in vivo, day 21
[4] = 50% inhibition of viral c.p.e., HeLa cells, 1 day at 37° C.
[5] = Mus musculus, po, 504 h, read-out: Survival
[6] = ip, single dose i.p., dissolved in dimethyl sulfoxide, read-out: LD50 i.p.
[7] = po, single dose p.o., suspended in 0.5% carboxymethylcellulose, read-out: LD50 p.o.
[8] = Mus musculus, ip, 504 h, read-out: Survival

COc1cc(O)c2c(=O)c(OC)c(-c3ccc(OC)c(O)c3)oc2c1 [3',5-dihydroxy-3,4',7-trimethoxyflavone]
IC50 (rhinovirus HGP): 3 mg/L (≈ 8.71 µM) | IC50 (Coxsackie virus B1 [1]; [4]): 3 to 10 mg/L (≈ 8.71 to 29 µM)

CCC(=O)Oc1ccc(-c2oc3cc(OC)cc(OC(=O)CC)c3c(=O)c2OC)cc1OC [3,3',7-trimethoxy-4',5-bis-(propionyloxy)-flavone]
IC50 (rhinovirus HGP): 0.1 to 0.2 mg/L (≈ 0.219 to 0.438 µM) | IC50 (Coxsackie virus B1 [1]; [4]): 0.1 to 1.2 mg/L (≈ 0.219 to 2.63 µM)

COc1cc(O)c2c(=O)c(OC)c(-c3ccc(OC(C)=O)c(OC)c3)oc2c1 [4'-acetoxy-5-hydroxy-3,3',7-trimethoxyflavone]
IC50 (rhinovirus HGP): 0.5 mg/L (≈ 1.29 µM) | IC50 (Coxsackie virus B1 [1]; [4]): 0.25 to 0.5 mg/L (≈ 0.647 to 1.29 µM)

COc1cc(OC(=O)c2cccnc2)c2c(=O)c(OC)c(-c3ccc(OC(=O)c4cccnc4)c(OC)c3)oc2c1 [3,3',7-trimethoxy-4',5-bis-(nicotinoyloxy)-flavone]
IC50 (rhinovirus HGP): 0.3 to 1 mg/L (≈ 0.541 to 1.8 µM) | IC50 (Coxsackie virus B1 [1]; [4]): 0.3 to 1 mg/L (≈ 0.541 to 1.8 µM) | responders at 10 mg/kg (Coxsackie virus B1 [2]; [5]): 40% | responders at 20 mg/kg (Coxsackie virus B1 [2]; [5]): 30%

COc1cc(O)c2c(=O)c(OC(C)C)c(-c3ccc(O)c(OC)c3)oc2c1 [4',5-dihydroxy-3-isopropoxy-3',7-dimethoxyflavone]
IC50 (rhinovirus HGP): 0.05 to 0.1 mg/L (≈ 0.134 to 0.269 µM) | IC50 (Coxsackie virus B1 [1]; [4]): 0.05 to 0.1 mg/L (≈ 0.134 to 0.269 µM)

COc1cc(O)c2c(=O)c(OC)c(-c3ccc(OC(=O)C(C)(C)C)c(OC)c3)oc2c1 [5-hydroxy-3,3',7-trimethoxy-4'-(pivaloyloxy)-flavone]
IC50 (rhinovirus HGP): 0.3 mg/L (≈ 0.7 µM) | IC50 (Coxsackie virus B1 [1]; [4]): 0.3 to 1 mg/L (≈ 0.7 to 2.33 µM)

COc1cc(O)c2c(=O)c(OC)c(-c3ccc(N)cc3)oc2c1 [4'-amino-5-hydroxy-3,7-dimethoxyflavone]
IC50 (rhinovirus HGP): 3 mg/L (≈ 9.58 µM) | IC50 (Coxsackie virus B1 [1]; [4]): 10 to 30 mg/L (≈ 31.9 to 95.8 µM)

COc1ccc(-c2oc3cc(OC)cc(O)c3c(=O)c2OC)cc1 [5-hydroxy-3,4',7-trimethoxyflavone]
IC50 (rhinovirus HGP): 1 mg/L (≈ 3.05 µM) | IC50 (Coxsackie virus B1 [1]; [4]): > 8 mg/L

COc1cc(OC(C)=O)c2c(=O)c(OC)c(-c3ccc(OC(C)=O)c(OC)c3)oc2c1
Survivals (influenzavirus A2/Adachi; 20 mg/kg × 9, i.p.): 2/7 | Survivals (%) (influenzavirus A2/Adachi; 20 mg/kg × 9, i.p.): 29% | Survivals (influenzavirus A2/Adachi; 40 mg/kg × 9, i.p.): 3/8 | Survivals (%) (influenzavirus A2/Adachi; 40 mg/kg × 9, i.p.): 38% | IC50 (rhinovirus HGP): 0.1 to 0.2 mg/L (≈ 0.233 to 0.467 µM) | Survivors/total (Coxsackie virus B1 [3]; 10 mg/kg × 9 orally, infection 2.5x LD50, day 21): 2/7 | Survivors/total (Coxsackie virus B1 [3]; 10 mg/kg × 9 orally, infection 10x LD50, day 21): 1/7 | Survivors/total (Coxsackie virus B1 [3]; 10 mg/kg × 9 orally, infection 40x LD50, day 21): 0/7 | Survivors/total (Coxsackie virus B1 [3]; 10 mg/kg × 9 orally, infection 160x LD50, day 21): 0/7 | Survivors/total (Coxsackie virus B1 [3]; 20 mg/kg × 9 orally, infection 2.5x LD50, day 21): 3/7 | Survivors/total (Coxsackie virus B1 [3]; 20 mg/kg × 9 orally, infection 10x LD50, day 21): 2/7 | Survivors/total (Coxsackie virus B1 [3]; 20 mg/kg × 9 orally, infection 40x LD50, day 21): 1/7 | Survivors/total (Coxsackie virus B1 [3]; 20 mg/kg × 9 orally, infection 160x LD50, day 21): 1/7 | Survivors/total (Coxsackie virus B1 [3]; 40 mg/kg × 9 orally, infection 2.5x LD50, day 21): 4/7 | Survivors/total (Coxsackie virus B1 [3]; 40 mg/kg × 9 orally, infection 10x LD50, day 21): 3/7 | Survivors/total (Coxsackie virus B1 [3]; 40 mg/kg × 9 orally, infection 40x LD50, day 21): 2/7 | Survivors/total (Coxsackie virus B1 [3]; 40 mg/kg × 9 orally, infection 160x LD50, day 21): 2/7 | LD50 at 504 h (acute toxicity in mice; [6]): > 1000 mg/kg | LD50 at 504 h (acute toxicity in mice; [7]): > 5000 mg/kg | IC50 (Coxsackie virus B1 [1]; HeLa): 0.1 to 0.2 mg/L (≈ 0.233 to 0.467 µM) | Survival (Coxsackie virus B1 [2]; 40 mg/kg × 9, p.o., up to 21 days): 50% | responders at 10 mg/kg (Coxsackie virus B1 [2]; [8]): 54% | responders at 20 mg/kg (Coxsackie virus B1 [2]; [8]): 67% | responders at 20 mg/kg (Coxsackie virus B1 [2]; [5]): 20% | responders at 40 mg/kg (Coxsackie virus B1 [2]; [5]): 50% | responders at 80 mg/kg (Coxsackie virus B1 [2]; [5]): 60%

COc1cc(O)c2c(=O)c(OC)c(-c3ccc(OC(=O)[C@H](C)N)c(OC)c3)oc2c1 [4'-(L-alanyloxy)-5-hydroxy-3,3',7-trimethoxyflavone]
IC50 (rhinovirus HGP): 0.5 mg/L (≈ 1.2 µM) | LD50 at 504 h (acute toxicity in mice; [6]): > 1000 mg/kg | LD50 at 504 h (acute toxicity in mice; [7]): > 5000 mg/kg | IC50 (Coxsackie virus B1 [1]; HeLa): 0.25 to 0.5 mg/L (≈ 0.602 to 1.2 µM) | responders at 10 mg/kg (Coxsackie virus B1 [2]; Mus musculus, iv, 504 h, read-out: Survival): 42%

COc1cc(O)c2c(=O)c(OC)c(-c3ccc(OC(=O)[C@@H](N)CCC(=O)O)c(OC)c3)oc2c1 [4'-(L-α-glutamyloxy)-5-hydroxy-3,3',7-trimethoxyflavone]
IC50 (rhinovirus HGP): 0.25 mg/L (≈ 0.528 µM) | IC50 (Coxsackie virus B1 [1]; [4]): 0.25 to 0.5 mg/L (≈ 0.528 to 1.06 µM)

COc1cc(OC(=O)C(C)C)c2c(=O)c(OC)c(-c3ccc(OC(=O)C(C)(C)C)c(OC)c3)oc2c1 [5-(isobutyryloxy)-3,3',7-trimethoxy-4'-(pivaloyloxy)-flavone]
IC50 (rhinovirus HGP): 0.3 mg/L (≈ 0.602 µM) | IC50 (Coxsackie virus B1 [1]; [4]): 0.3 to 1 mg/L (≈ 0.602 to 2.01 µM) | responders at 10 mg/kg (Coxsackie virus B1 [2]; [5]): 30% | responders at 20 mg/kg (Coxsackie virus B1 [2]; [5]): 40%
